Assay results reported in US20070154393A1, “Bioassay for volatile low molecular weight insecticides and methods of use” (priority 2005, published 2007).
Entries after “also recorded” stand apart in the source; their conditions may differ. Structures can show the parent of a compound that is named as a salt. Where two headings read alike, the source gives them in different places.

What was measured:
[1] = tested on: metabolically-resistant Hikone-R strain of Drosophila (elevated cytochrome P450); type: in vivo; details: for response of Hikone-R relative to Canton-S (LC50 ratio Hikone÷Canton, FIG. 5), in words: significance at p<0.05, method of Robertson and Preisler
Method: (§1) Four Drosophila strains were used, all obtained from the Bloomington Drosophila Stock Center (Indiana University; Bloomington, Ind.). The Canton-S strain was used as the insecticide-susceptible standard. […] Two resistant neurological-mutant strains were also tested. […] Flies were reared in 100-ml vials capped with acetate plugs (Fisher Scientific; Suwanee, Ga.) on a commercial diet (JAZZ-MIX; Fisher Scientific). […] Mixed-sex adults, less than 1-wk old, were used in bioassays.
(§2) All volatile insecticide stocks were prepared at 100 μg/μl in analytical grade acetone. Rather than weigh the highly volatile liquid insecticides (i.e., all compounds except benzothiophene), weight was determined based on the density-volume relationship of each compound. […] The insecticide synergists PBO (piperonyl butoxide) and DEF (SSS-tributyl-phosphoro-trithioate) were obtained from Fluka Chemical Co. (Basel, Switzerland) and Mobay Chemical Co. (Kansas City, Mo.). […] Synergist stocks were prepared at 100 μg/ml in analytical grade acetone.
(§3) Briefly, bioassays took place in 0.5-l glass jars with metal lids. Mixed-sex flies were isolated from lab colonies and placed in 4-ml dram vials in groups of ten, along with a dried piece of laboratory diet. The dram vials were capped with open-top septum caps that were covered with fine mesh (held in place by non-toxic glue). For bioassays, the assembled dram vials were placed into the 0.5-l jars along with a folded filter paper “tent” (Whatman #1; Vineland, N.J.). The filter paper was treated with either an insecticide dilution or acetone, the jar was sealed with the metal lid, and the bioassay proceeded for 24-hr at room temperature. Mortality was scored based on a complete lack of movement by the flies. Four concentrations plus an acetone control were tested for all insecticides. Between five and ten replicates were performed for each concentration range on each strain-insecticide combination. Synergist bioassays were performed with a slight modification. Synergist stocks were applied to dram vials at 100 μl per vial to provide assay concentrations of 10 μg per vial. […] After treatment, vials were held at an angle in a fume hood and rotated ¼-turn each minute until the acetone evaporated. Flies and diet were added as above and held for 1-hr. Assays were initiated, run, and scored as above.
(§4) Probit analysis was performed using PROC PROBIT in the SAS software package (SAS Institute; Cary, N.C.). If control mortality ever exceeded 10% in a given replicate, that replicate was discarded.

[2] = tested on: para-ts1 (para-R) strain of Drosophila (sodium channel point mutation); type: in vivo; details: significance at p<0.05, method of Robertson and Preisler
Method: as §1, §2, §3, §4

[3] = tested on: Rd1 (Rdl-R) strain of Drosophila (GABA-gated chloride channel point mutation); type: in vivo, Drosophila melanogaster
Source text: (§5) Four Drosophila strains were used, all obtained from the Bloomington Drosophila Stock Center (Indiana University; Bloomington, Ind.). The Canton-S strain was used as the insecticide-susceptible standard. The Hikone-R strain is metabolically-resistant with elevated cytochrome P450 levels (Waters et al., 1984; Sundseth et al., 1989; Le Goff et al., 2003; Festucci-Buselli et al., 2005). Hikone-R is resistant to a number of insecticides, including malathion, DDT and neonicotinoids (Sundseth et al., 1989; Daborn et al., 2001). Two resistant neurological-mutant strains were also tested. […] Flies were reared in 100-ml vials capped with acetate plugs (Fisher Scientific; Suwanee, Ga.) on a commercial diet (JAZZ-MIX; Fisher Scientific). Flies were reared on a 12:12 photocycle at 24° C. and 60% relative humidity. Mixed-sex adults, less than 1-wk old, were used in bioassays.
(§6) All experimental materials were purchased from Sigma-Aldrich-Fluka (Milwaukee, Wis.) and were of 99% purity or greater. […] All volatile insecticide stocks were prepared at 100 μg/μl in analytical grade acetone. Rather than weigh the highly volatile liquid insecticides (i.e., all compounds except benzothiophene), weight was determined based on the density-volume relationship of each compound. Four serial dilutions were prepared and tested for each insecticide as described previously (Scharf et al., 2006). The insecticide synergists PBO (piperonyl butoxide) and DEF (SSS-tributyl-phosphoro-trithioate) were obtained from Fluka Chemical Co. (Basel, Switzerland) and Mobay Chemical Co. (Kansas City, Mo.). Both synergists were >95% purity. Synergist stocks were prepared at 100 μg/ml in analytical grade acetone.
(§7) Volatility bioassays were conducted exactly as described in a previous report (Scharf et al., 2006). Briefly, bioassays took place in 0.5-l glass jars with metal lids. Mixed-sex flies were isolated from lab colonies and placed in 4-ml dram vials in groups of ten, along with a dried piece of laboratory diet. The dram vials were capped with open-top septum caps that were covered with fine mesh (held in place by non-toxic glue). For bioassays, the assembled dram vials were placed into the 0.5-l jars along with a folded filter paper “tent” (Whatman #1; Vineland, N.J.). The filter paper was treated with either an insecticide dilution or acetone, the jar was sealed with the metal lid, and the bioassay proceeded for 24-hr at room temperature. Mortality was scored based on a complete lack of movement by the flies. Four concentrations plus an acetone control were tested for all insecticides. Between five and ten replicates were performed for each concentration range on each strain-insecticide combination. Synergist bioassays were performed with a slight modification. Synergist stocks were applied to dram vials at 100 μl per vial to provide assay concentrations of 10 μg per vial. […] After treatment, vials were held at an angle in a fume hood and rotated ¼-turn each minute until the acetone evaporated. Flies and diet were added as above and held for 1-hr. Assays were initiated, run, and scored as above.
(§8) Probit analysis was performed using PROC PROBIT in the SAS software package (SAS Institute; Cary, N.C.). If control mortality ever exceeded 10% in a given replicate, that replicate was discarded. Toxicity and synergist ratios at LC50 were compared statistically using the calculation described by Robertson and Preisler (1992). Using this procedure, ratios with 95% confidence intervals were calculated using a spreadsheet-based program. With this calculation, if confidence intervals include 1.0 then ratios are considered non-significant (p>0.05; Robertson and Preisler, 1992).

[4] = tested on: metabolically resistant Hikone-R strain of Drosophila; type: in vivo; details: Hikone, FIG. 6
Method: as §6, §7, §8

[5] = tested on: insecticide-susceptible Canton-S strain of Drosophila; type: in vivo
Method: as §6, §7, §8

[6] = tested on: insecticide-susceptible Drosophila melanogaster (Canton-S strain); type: in vivo; details: in vivo
Method: The insecticide-susceptible Canton-S strain of Drosophila was obtained from the Bloomington Drosophila stock center (Indiana University, Bloomington, Ind.), and used exclusively in all studies. Flies were reared in 100-ml vials capped with acetate plugs (Fisher Scientific; Suwannee, Ga.) on a JAZZ-MIX diet (Fisher) prepared with a 2:1 ratio of water to apple juice. Flies were reared on a 12:12 photocycle at 24° C. and ambient relative humidity. Mixed-sex adults, less than 1-wk old, were used in bioassays.
Flies were briefly anesthetized in rearing vials with a pulse of CO2 and transferred to a CO2 flowbed (Genesee Scientific; San Diego, Calif.). Using a camel hair brush and a 5×5 cm sheet of rice paper, ten flies were placed into 7.0 ml dram vials. Prior to adding flies, each vial received a 0.5 cm^3 block of rearing diet that had been sufficiently dried on a paper towel to remove excessive moisture. The vials were then capped with open-top septum caps (Fisher) that were covered with fine mesh. The mesh was applied to the septum caps in advance using hot glue; it prevented fly escape but readily permitted gas exchange. The flies were allowed 1-hr to recover from the CO2 anesthesia. After one hour, single vials with flies were placed into 0.5 L glass jars, along with a filter paper tent (see FIG. 1). In a fume hood, filter paper tents were treated with insecticide dilutions or acetone for controls. The jars were then rapidly closed tightly with a metal lid. After 24 hours of exposure, mortality was scored with the aid of a magnifying glass.
All test compounds and solvents were >99% purity, and were purchased from Sigma-Aldrich Chemical (Milwaukee, Wis.). See Table 1 for a listing of the test compounds and their structures. Insecticide stock solutions were prepared at a standard concentration of 100 μg/μl in analytical grade acetone. For liquid insecticidal compounds, density in mg/μl was used to calculate weight on a per-volume basis. Stock solutions were held at −20° C. in sealed amber vials. In bioassay jars, filter paper tents were treated with stock volumes ranging from 2 to 20 μl, depending on the inherent toxicity of the test compound. These volumes of insecticide stock provided test concentrations of 200 to 2000 μg insecticide per replicate jar. A range of 4-5 concentrations plus a control were tested for each insecticide, and each range was repeated five times over at least three days. Controls received a volume of acetone identical to the highest insecticide volume that was tested (i.e., 10 μl for menthofuran; 20 μl for all other insecticides). Between uses, bioassay jars and lids were washed in a dishwasher, then baked 12-16 hr at 90° C. in a drying oven.
Probit and regression analyses were performed using the PROC PROBIT and PROC REG procedures, respectively. […] If control mortality ever exceeded 10% in a given replicate, that replicate was discarded.
as §5

[7] = Table 3, Hikone-R, no synergist, 24 hr

SMILES	Slope ± Std. Error (probit mortality line) ([1]; Table 2, Hikone-R, 24 hr)	Slope ± Std. Error (probit mortality line) [1, 7]	response of Hikone-R relative to Canton-S (LC50 ratio Hikone÷Canton, FIG. 5), in words [1]	response of para-ts1 relative to Canton-S (LC50 ratio, FIG. 7B), in words [2]	response of Rd1 relative to Canton-S (LC50 ratio, FIG. 7A), in words ([3]; in vivo)	LC50 ([1]; in vivo)	Slope ± Std. Error (probit mortality line) ([1]; in vivo)	LC50 ([3]; in vivo)	response of Rd1 relative to Canton-S (LC50 ratio, FIG. 7A), in words ([3]; significance at p<0.05, method of Robertson and Preisler)	effect of PBO treatment on toxicity, in words [4]	efficacy level when mixed with the P450 inhibitor PBO ([5]; 'levels on the same scale' as MITC and DDVP)	effect of PBO treatment on toxicity, in words ([5]; Canton-S, FIG. 6)	response of Hikone-R relative to Canton-S (LC50 ratio Hikone÷Canton, FIG. 5), in words ([1]; listed as mentho-)	response of Hikone-R relative to Canton-S (LC50 ratio Hikone÷Canton, FIG. 5), in words ([1]; listed as menthofuran)	LC50 (95% CL) [6]
c1ccc2sccc2c1 [Benzothiophene, benzothiophene]	4.42 ± 0.46	4.42 ± 0.46	significantly enhanced susceptibility; also recorded: greater susceptibility	enhanced susceptibility	significantly enhanced susceptibility										
CCCCOC=O [Butyl Formate, butyl formate]				non-significant tolerance		1570.0 μg insecticide per 0.5 liter of headspace	8.82 ± 2.00	1246.0 μg insecticide per 0.5 liter of headspace	non-significant tolerance						
CCCCCCOC=O [Hexyl Formate, hexyl formate]	3.26 ± 0.65	3.26 ± 0.65	non-significant tolerance	non-significant tolerance	non-significant tolerance										
Cc1coc2c1CC[C@H](C)C2 [Menthofuran, menthofuran]	4.12 ± 0.45	4.12 ± 0.45		enhanced susceptibility	significantly enhanced susceptibility					no effects	< 100 µg/L	increased menthofuran toxicity	significantly enhanced susceptibility	significantly more susceptible; also recorded: greater susceptibility; also recorded: enhanced susceptibility	
CCCOC=O [Propyl Formate, propyl formate]	7.43 ± 1.26	7.43 ± 1.26		non-significant tolerance	significant resistance										1833.0 (1787.0 − 1884.0) μg/jar
CC(C)(C)OC=O [t-Butyl Formate, tert-butyl formate]	44.70	44.70	non-significant tolerance	elevated tolerance; also recorded: significant tolerance	significant resistance; also recorded: significant tolerance										1981.0 (1917.0 − 2048.4) μg/jar
